Measurements from ChEMBL document CHEMBL6103613 (J Med Chem, 2025).
≈ marks a conversion by molar mass, not a printed value. Calls of active or inactive are those of the source. The calls are words filed in the database; no cut-off is given here.

Experiments:
Staphylococcus aureus [1] = experiment: Antimicrobial activity against Staphylococcus aureus assessed as reduction in bacterial growth at 2 times MIC incubated for 2 hrs by time-killing assay; format: functional; set-up: scale not given: the % may be the effect or the level left
[2] = Stability of compound in mouse serum measured after 24 hrs; format: ADME, cell-free
[3] = Toxicity in mouse assessed as change in behavior at 50 mg/kg, ip measured for 7 days; format: organism-based; conditions: in vivo, 168 h, time 7 day
[4] = Toxicity in mouse assessed as change in body weight gain at 50 mg/kg, ip measured for 7 days; format: organism-based; conditions: in vivo, 168 h, time 7 day
Escherichia coli = experiment: Antimicrobial activity against Escherichia coli assessed as inhibition of visible bacterial growth incubated for 18 hrs by CLSI based analysis; format: functional
Staphylococcus aureus [5] = experiment: Antimicrobial activity against methicillin-resistant Staphylococcus aureus ATCC 43300 assessed as inhibition of visible bacterial growth incubated for 18 hrs by CLSI based analysis; format: functional
Staphylococcus aureus [6] = experiment: Antibiofilm activity in Staphylococcus aureus assessed as biofilm eradication at 8 times MIC relative to control; format: functional
[7] = Toxicity in mouse assessed as change in bowel movement intake at 50 mg/kg, ip measured for 7 days; format: organism-based; conditions: in vivo, 168 h, time 7 day
Cell membrane [8] = experiment: Disruption of cell membrane integrity in Staphylococcus aureus at 4 times of MIC incubated for 30 mins by Propidium iodide staining based analysis; format: subcellular
Staphylococcus aureus [9] = experiment: Upregulation of dltB expression in Staphylococcus aureus at 12.5 microg/ml incubated for 3 hrs by RNA sequencing analysis; format: functional; conditions: dose 12.5 µg/ml
Enterococcus faecalis = experiment: Antimicrobial activity against Enterococcus faecalis ATCC 19433 assessed as inhibition of visible bacterial growth incubated for 18 hrs by CLSI based analysis; format: functional
Staphylococcus aureus [10] = experiment: Antibiofilm activity in Staphylococcus aureus assessed as biofilm eradication at 4 times MIC relative to control; format: functional
[11] = Toxicity in mouse assessed as survival rate at 50 mg/kg, ip measured for 7 days; format: organism-based; conditions: in vivo, time 7 day
Staphylococcus aureus [12] = experiment: Antibacterial activity against methicillin-resistant Staphylococcus aureus infected in kunming mouse keratitis model measured upto 24 hrs; format: functional, organism-based
Staphylococcus aureus [13] = experiment: Upregulation of Mnh1 expression in Staphylococcus aureus at 12.5 microg/ml incubated for 3 hrs by RNA sequencing analysis; format: functional; conditions: dose 12.5 µg/ml
Peptidoglycan [14] = experiment: Binding affinity to Staphylococcus aureus peptidoglycan assessed as change in entropy by ITC analysis
Peptidoglycan [15] = experiment: Binding affinity to Staphylococcus aureus peptidoglycan assessed as dissociation constant by ITC analysis
Staphylococcus aureus [16] = experiment: Upregulation of thiol peroxidase expression in Staphylococcus aureus at 12.5 microg/ml incubated for 3 hrs by RNA sequencing analysis; format: functional, organism-based; conditions: dose 12.5 µg/ml
[17] = Toxicity in mouse assessed as signs of drowsiness at 50 mg/kg, ip measured for 7 days; format: organism-based; conditions: in vivo, 168 h, time 7 day
Staphylococcus aureus [18] = experiment: Upregulation of dltD expression in Staphylococcus aureus at 12.5 microg/ml incubated for 3 hrs by RNA sequencing analysis; format: functional; conditions: dose 12.5 µg/ml
Staphylococcus aureus [19] = experiment: Antimicrobial activity against Staphylococcus aureus incubated for 0.5 hrs in presence of Mg+; format: functional, organism-based
Staphylococcus aureus [20] = experiment: Upregulation of ahpF expression in Staphylococcus aureus at 12.5 microg/ml incubated for 3 hrs by RNA sequencing analysis; format: functional; conditions: dose 12.5 µg/ml
Staphylococcus aureus [21] = experiment: Antibacterial activity against methicillin-resistant Staphylococcus aureus infected in kunming mouse pneumonia model assessed as decrease in IL-6 expression in lung at 5 mg/kg, ip measured upto 8 days; format: functional, organism-based; conditions: time <= 8.0 day
Staphylococcus aureus [22] = experiment: Antimicrobial activity against Staphylococcus aureus incubated for 0.5 hrs in presence of Ca2+; format: functional, organism-based
Cell membrane [23] = experiment: Disruption of cell membrane integrity in Staphylococcus aureus at 4 times of MIC incubated upto 20 mins by fluorescence microscopic analysis; format: subcellular
Staphylococcus aureus [24] = experiment: Induction of ROS production in Staphylococcus aureus assessed as increase in fluorescence intensity at 2 times MIC by DCFH-DA probe based assay; format: functional, organism-based
Staphylococcus aureus [25] = experiment: Antimicrobial activity against Staphylococcus aureus ATCC 25923 incubated for 1 hr in presence of PGN; format: functional
[26] = Hemolytic activity against mouse Red blood cell incubated for 1 hr; format: toxicity, cell-based; conditions: erythrocyte
Staphylococcus aureus [27] = experiment: Antimicrobial activity against Staphylococcus aureus incubated for 0.5 hrs in presence of K+; format: functional, organism-based
Staphylococcus aureus [28] = experiment: Antimicrobial activity against methicillin-resistant Staphylococcus aureus clinical isolate 4 assessed as inhibition of visible bacterial growth incubated for 18 hrs by CLSI based analysis; format: functional
Staphylococcus aureus [29] = experiment: Antimicrobial activity against Staphylococcus aureus ATCC 25923 assessed as inhibition of visible bacterial growth incubated for 18 hrs by CLSI based analysis; format: functional
Staphylococcus aureus [30] = experiment: Antimicrobial activity against Staphylococcus aureus incubated for 0.5 hrs in presence of NA+; format: functional, organism-based
Staphylococcus aureus [31] = experiment: Upregulation of CwrA expression in Staphylococcus aureus at 12.5 microg/ml incubated for 3 hrs by RNA sequencing analysis; format: functional; conditions: dose 12.5 µg/ml
[32] = Toxicity in mouse assessed as change in food intake at 50 mg/kg, ip measured for 7 days; format: organism-based; conditions: in vivo, 168 h, time 7 day
Staphylococcus aureus [33] = experiment: Upregulation of TarF expression in Staphylococcus aureus at 12.5 microg/ml incubated for 3 hrs by RNA sequencing analysis; format: functional; conditions: dose 12.5 µg/ml

CC(C)[C@@H]1NC(=O)[C@@H](C(C)C)NC(=O)[C@H](C(C)C)NC(=O)[C@@H](CCCCN)NC(=O)[C@H](Cc2c(C(c3ccccc3)(c3ccccc3)c3ccccc3)[nH]c3ccccc23)NC(=O)[C@@H](C(C)C)NC(=O)[C@@H]2CSC1N2
Activity (Staphylococcus aureus [1]): >99%
Stability [2]: Stable
Activity [3]: Non-toxic
Activity [4]: Non-toxic
MIC (Escherichia coli): 3.13 µg/mL (≈ 3.01 µM)
MIC (Staphylococcus aureus [5]): 6.25 µg/mL (≈ 6.01 µM)
Activity (Staphylococcus aureus [6]): 90%
Activity [7]: Non-toxic
Activity (Cell membrane [8]): 46.7%
Activity (Staphylococcus aureus [9]): Active
MIC (Enterococcus faecalis): 12.5 µg/mL (≈ 12 µM)
Activity (Staphylococcus aureus [10]): 40%
survival at 168 h [11]: 100%
Activity (Staphylococcus aureus [12]): Active
Activity (Staphylococcus aureus [13]): Active
TdeltaS (Peptidoglycan [14]): 7.55 kcal/mol
Kd (Peptidoglycan [15]): 615 nM
Activity (Staphylococcus aureus [16]): Active
Activity [17]: Non-toxic
Activity (Staphylococcus aureus [18]): Active
Activity (Staphylococcus aureus [19]): Active
Activity (Staphylococcus aureus [20]): Active
Activity (Staphylococcus aureus [21]): Active
Activity (Staphylococcus aureus [22]): Active
Activity (Cell membrane [23]): Active
Activity (Staphylococcus aureus [24]): Active
MIC (Staphylococcus aureus [25]): > 50 µg/mL
HC5 [26]: > 100 µg/mL
Activity (Staphylococcus aureus [27]): Active
MIC (Staphylococcus aureus [28]): 6.25 µg/mL (≈ 6.01 µM)
MIC (Staphylococcus aureus [29]): 6.25 µg/mL (≈ 6.01 µM)
Activity (Staphylococcus aureus [30]): Active
Activity (Staphylococcus aureus [31]): Active
Activity [32]: Non-toxic
Activity (Staphylococcus aureus [33]): Active
